According to US20230083973A1, “SUBSTITUTED CYCLOPROPYL-2,2'-BIP[…], ANALOGUES THEREOF, AND METHODS USING SAME” (priority 2019, published 2023):
Read-outs that look alike come from different tables or passages of the source.

Tested on: HBsAg
Assay: HBsAg assay: inhibition of HBsAg in HepG2.2.15 cells (chemiluminescence immunoassay of supernatant)
Type: cell-based, hepatitis B virus
Conditions: HBsAg in supernatant at day 6 after exposure to compound, 0.5% DMSO
Summary of the method: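 HepG2.2.15 cells treated with serially diluted compounds (0.5% DMSO), medium and compound refreshed after 2–3 days, supernatant harvested at day 6. Secreted HBsAg measured by chemiluminescence immunoassay; EC50 from dose-response curves, with parallel CellTiter-Glo viability at 5,000 cells/well.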

[1] = read-out: sAg EC50, HepG2.2.15 cells

Fc1cc(C2CC2c2cnc(-c3ncccn3)nc2)cc(O[C@@H]2CCOC2)c1F (single isomer, unassigned) [Example 247]
EC50 [1]: 76 nM

Fc1cc(C2CC2c2cnc(-c3ncccn3)nc2)cc(N2CCCC2)c1F (single isomer, unassigned) [Example 93, trans-5-(2-(3,4-Difluoro-5-(pyrrolidin-1-yl)phenyl)cyclopropyl)-2,2′-bipyrimidine]
EC50 [1]: 19 nM

c1cnc(-c2ncc([C@@H]3C[C@H]3c3cnc4ccccn34)cn2)nc1 (relative stereo) [Example 170, trans-3-(2-([2,2′-Bipyrimidin]-5-yl)cyclopropyl)imidazo[1,2-a]pyridine]
EC50 (Hepatitis B virus, HepG2.2.15, 144 h, read-out: sAg EC50, HepG2.2.15 cells): 1000 nM
